Read-outs that look alike come from different tables or passages of the source.
Tests used:
Format in all cases: cell-based, human
[1] = system: non-senescent control A549 cells; test: Nuclei count senolytic assay, TIS model, non-senescent control cells; conditions: Homo sapiens, A549, Control cells, mean, read-out: Mean % Cell Survival; for viability at 10 µM: log (dose) [M] -5; for viability at 4.68 µM: log (dose) [M] -5.33; for viability at 2.19 µM: log (dose) [M] -5.66; for viability at 1 µM: log (dose) [M] -6; for viability at 0.468 µM: log (dose) [M] -6.33; for viability at 0.219 µM: log (dose) [M] -6.66; for viability at 0.1 µM: log (dose) [M] -7; for viability at 0.0468 µM: log (dose) [M] -7.33; for viability at 0.0219 µM: log (dose) [M] -7.66; for viability at 0.01 µM: log (dose) [M] -8
Summary of the method: (§1)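 Etoposide 100 μM, 48 h, + 3 d standard media → senescent A549; untreated A549 = controls. 24 h post-seeding, cpds 10 nM–10 μM final, 10-pt […], 72 h, n=3. Fix formaldehyde, permeabilise Triton-X100, Hoechst 2 μg/ml, image, count nuclei.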

[2] = system: senescent A549 cells (etoposide-induced); test: Nuclei count senolytic assay, therapy-induced senescence (TIS) model, senescent cells; conditions: Homo sapiens, A549, Senescent cells, mean, read-out: Mean % Cell Survival; for viability at 10 µM: log (dose) [M] -5; for viability at 4.68 µM: log (dose) [M] -5.33; for viability at 2.19 µM: log (dose) [M] -5.66; for viability at 1 µM: log (dose) [M] -6; for viability at 0.468 µM: log (dose) [M] -6.33; for viability at 0.219 µM: log (dose) [M] -6.66; for viability at 0.1 µM: log (dose) [M] -7; for viability at 0.0468 µM: log (dose) [M] -7.33; for viability at 0.0219 µM: log (dose) [M] -7.66; for viability at 0.01 µM: log (dose) [M] -8
Summary of the method: as §1

[3] = system: non-senescent control IMR90 ER:RAS cells; test: Nuclei count (Hoechst, high content imaging) senolytic assay, OIS model, non-senescent control cells; conditions: Homo sapiens; for viability at 4.677 µM: log (dose) [M] -5.33, 72 h; for viability at 2.188 µM: log (dose) [M] -5.66, 72 h; for viability at 0.2188 µM: log (dose) [M] -6.66, 72 h; for viability at 0.02188 µM: log (dose) [M] -7.66, 72 h; for viability at 4.68 µM: log (dose) [M] -5.33; for viability at 2.19 µM: log (dose) [M] -5.66; for viability at 0.219 µM: log (dose) [M] -6.66
Summary of the method: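 IMR90 ER:RAS (p14), ±4-OHT 100 nM; cpd 10 nM–10 μM, 10-pt […], 72 h, n=3. Fix formaldehyde, Triton X-100, Hoechst 2 μg/ml final. Readout: imaged nuclei count vs untreated; ouabain positive control.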

[4] = IMR-90, 72 h, Control, log (dose) [M] -5, 72 h, mean n=3 (Fig 3C), read-out: Mean % Cell Survival
[5] = IMR-90, 72 h, Control, mean n=3 (Fig 3C), read-out: Mean % Cell Survival
[6] = IMR-90, 72 h, Control, log (dose) [M] -6, 72 h, mean n=3 (Fig 3C), read-out: Mean % Cell Survival
[7] = IMR-90, 72 h, Control, log (dose) [M] -6.33, 72 h, mean n=3 (Fig 3C), read-out: Mean % Cell Survival
[8] = IMR-90, 72 h, Control, log (dose) [M] -7, 72 h, mean n=3 (Fig 3C), read-out: Mean % Cell Survival
[9] = IMR-90, 72 h, Control, log (dose) [M] -7.33, 72 h, mean n=3 (Fig 3C), read-out: Mean % Cell Survival
[10] = IMR-90, 72 h, Control, log (dose) [M] -8, 72 h, mean n=3 (Fig 3C), read-out: Mean % Cell Survival
[11] = IMR-90, Control, read-out: % Cell Survival
[12] = IMR-90, Control, log (dose) [M] -6, read-out: % Cell Survival
[13] = IMR-90, Control, log (dose) [M] -6.33, read-out: % Cell Survival
[14] = IMR-90, Control, log (dose) [M] -7, read-out: % Cell Survival
[15] = IMR-90, Control, log (dose) [M] -8, read-out: % Cell Survival

Structure (SMILES)	viability at 10 µM [1] [%]	viability at 4.68 µM [1] [%]	viability at 2.19 µM [1] [%]	viability at 1 µM [1] [%]	viability at 0.468 µM [1] [%]	viability at 0.219 µM [1] [%]	viability at 0.1 µM [1] [%]	viability at 0.0468 µM [1] [%]	viability at 0.0219 µM [1] [%]	viability at 0.01 µM [1] [%]	viability at 10 µM [2] [%]	viability at 4.68 µM [2] [%]	viability at 2.19 µM [2] [%]	viability at 1 µM [2] [%]	viability at 0.468 µM [2] [%]	viability at 0.219 µM [2] [%]	viability at 0.1 µM [2] [%]	viability at 0.0468 µM [2] [%]	viability at 0.0219 µM [2] [%]	viability at 0.01 µM [2] [%]	further results
O=c1oc2c(O)c(O)cc3c(=O)oc4c(O)c(O)cc1c4c23 [Ellagic acid, ellagic acid]	90.6	76.6	114	78.9	39.9	77.2	65.1	99	94.5	109	187	175	203	186	193	167	209	241	81.3	84.4	viability at 10 µM [3, 4]: 108%; viability at 4.677 µM [3, 5]: 92.9%; viability at 2.188 µM [3, 5]: 111%; viability at 1 µM [3, 6]: 105%; viability at 0.4677 µM [3, 7]: 109%; viability at 0.2188 µM [3, 5]: 111%; viability at 0.1 µM [3, 8]: 102%; viability at 0.04677 µM [3, 9]: 107%; viability at 0.02188 µM [3, 5]: 112%; viability at 0.01 µM [3, 10]: 104%; viability at 0.4677 µM ([3]; IMR-90, Control cells, log (dose) [M] -6.33, individual replicates, SUP FIG 4C, read-out: % Cell Survival): 118%; viability at 0.1 µM ([3]; IMR-90, Control cells, log (dose) [M] -7, individual replicates, SUP FIG 4C, read-out: % Cell Survival): 103%; viability at 10 µM ([3]; IMR-90, Control, log (dose) [M] -5, read-out: % Cell Survival): 133%; viability at 4.68 µM [3, 11]: 122%; viability at 2.19 µM [3, 11]: 120%; viability at 1 µM [3, 12]: 123%; viability at 0.468 µM [3, 13]: 120%; viability at 0.219 µM [3, 11]: 122%; viability at 0.1 µM [3, 14]: 130%; viability at 0.01 µM [3, 15]: 115%
CO[C@H]1C[C@@H]2CC[C@@H](C)[C@@](O)(O2)C(=O)C(=O)N2CCCC[C@H]2C(=O)O[C@H]([C@H](C)C[C@@H]2CC[C@@H](OCCO)[C@H](OC)C2)CC(=O)[C@H](C)/C=C(\C)[C@@H](O)[C@@H](OC)C(=O)[C@H](C)C[C@H](C)/C=C/C=C/C=C/1C [Everolimus, everolimus, reference compound]	106	103	103	102	67.5	103	102	106	105	108	71.7	84.3	79.6	66.9	72.1	74.4	76.2	85.6	95	94.7	viability at 10 µM [3, 4]: 107%; viability at 4.677 µM [3, 5]: 109%; viability at 2.188 µM [3, 5]: 107%; viability at 1 µM [3, 6]: 104%; viability at 0.4677 µM [3, 7]: 105%; viability at 0.2188 µM [3, 5]: 100%; viability at 0.1 µM [3, 8]: 109%; viability at 0.04677 µM [3, 9]: 105%; viability at 0.02188 µM [3, 5]: 102%; viability at 0.01 µM [3, 10]: 104%; viability at 4.68 µM [3, 11]: 107%; viability at 2.19 µM [3, 11]: 108%; viability at 1 µM [3, 12]: 106%; viability at 0.468 µM [3, 13]: 92.7%; viability at 0.219 µM [3, 11]: 109%; viability at 0.1 µM [3, 14]: 105%; viability at 0.04677 µM ([3]; IMR-90, Control, log (dose) [M] -7.33, read-out: % Cell Survival): 116%; viability at 0.0219 µM ([3]; IMR-90, Control, log (dose) [M] -7.66, read-out: % Cell Survival): 115%; viability at 0.01 µM [3, 15]: 118%
